Common to all, as to assay type: in vivo
Experiment [1] concerns BRAPP (Brachiaria platyphylla (Griseb.) Nash, broadleaf signalgrass). Put plainly: Postemergence foliar-applied herbicidal mixtures, direct seeded rice, greenhouse (Example I). From the text: (§1) Seeds or nutlets of the desired test plant species were planted in a soil matrix prepared by mixing a loam or sandy loam soil (e.g., 28.6 percent silt, 18.8 percent clay, and 52.6 percent sand, with a pH of about 5.8 and an organic matter content of about 1.8 percent) and calcareous grit in an 80 to 20 ratio. The soil matrix was contained in plastic pots with a volume of 1 quart and a surface area of 83.6 square centimeters (cm^2). When required to ensure good germination and healthy plants, a fungicide treatment and/or other chemical or physical treatment was applied. The plants were grown for 8-22 days in a greenhouse with an approximate 14 h photoperiod which was maintained at about 29° C. during the day and about 26° C. during the night. Nutrients (Peters Excel® 15-5-15 5-Ca 2-Mg and iron chelate) were applied in the irrigation solution as needed and water was added on a regular basis. Supplemental lighting was provided with overhead metal halide 1000-Watt lamps as necessary. The plants were employed for testing when they reached the first through fourth true leaf stage.
(§2) Treatments consisted of the acid or esters of 4-amino-3-chloro-5-fluoro-6-(4-chloro-2-fluoro-3-methoxy-phenyl)pyridine-2-carboxylic acid (Compound A), each formulated as an SC (suspension concentrate), and various herbicidal components alone and in combination. Forms of compound A were applied on an acid equivalent basis.
(§3) Other herbicidal components were applied on an active ingredient basis and included acetolactate synthase (ALS)-inhibiting herbicides (sulfonamide chemical class) penoxsulam formulated as Grasp® SC, diclosulam formulated as Strongarm®, and cloransulam-methyl formulated as FirstRate®, flumetsulam formulated as Flumetsulam WG, and metosulam formulated as Eclipse®.
(§4) Treatment requirements were calculated based upon the rates being tested, the concentration of active ingredient or acid equivalent in the formulation, and a 12 mL application volume at a rate of 187 L/ha.
(§5) For treatments comprised of formulated compounds, measured amounts of compounds were placed individually in 25 mL glass vials and diluted in a volume of 1.25% (v/v) Agri-Dex® crop oil concentrated to obtain 12× stock solutions. […] Application solutions were prepared by adding an appropriate amount of each stock solution (e.g., 1 mL) and diluted to the appropriate final concentrations with the addition of 10 mL of an aqueous mixture of 1.25% (v/v) crop oil concentrate so that the final spray solutions contained 1.25+/−0.05% (v/v) crop oil concentrate.
(§6) All stock solutions and applications solutions were visually inspected for compound compatibility prior to application. Spray solutions were applied to the plant material with an overhead Mandel track sprayer equipped with an 8002E nozzle calibrated to deliver 187 L/ha over an application area of 0.503 m^2 at a spray height of 18 to 20 inches (46 to 50 cm) above average plant canopy height. Control plants were sprayed in the same manner with the solvent blank.
(§7) The treated plants and control plants were placed in a greenhouse as described above and watered by sub-irrigation to prevent wash-off of the test compounds. After approximately 3 weeks, the condition of the test plants as compared with that of the untreated plants was determined visually and scored on a scale of 0 to 100 percent where 0 corresponds to no injury or growth inhibition and 100 corresponds to complete kill.
(§8) Colby's equation was used to determine the herbicidal effects expected from the mixtures (Colby, S. R. 1967. Calculation of the synergistic and antagonistic response of herbicide combinations. Weeds 15:20-22.).
(§9) The following equation was used to calculate the expected activity of mixtures containing two active ingredients, A and B: Expected=A+B−(A×B/100)

Experiment [2] concerns CYPIR (Cyperus iria L., rice flatsedge). Described as above.
From the text: as §1, §2, §3, §4, §5, §6, §7, §8, §9

In experiment [3] the test system is LEFCH (Leptochloa chinensis (L.) Nees, Chinese sprangletop). The description is as above. The settings on record: Metosulam 6.25 gai/ha.
From the text: as §1, §2, §3, §4, §5, §6, §7, §8, §9

The subject of experiment [4] is ECHCG (Echinochloa crusgalli (L.) Beauv., barnyardgrass). The description is as above.
From the text: as §1, §2, §3, §4, §5, §6, §7, §8, §9

For experiment [5], the system named is IPOHE (Ipomoea hederacea Jacq., ivyleaf morningglory). The experiment is described as above.
From the text: as §1, §2, §3, §4, §5, §6, §7, §8, §9

Experiment [6] deals with CIRAR (Cirsium arvense (L.) Scop., Canada thistle). Nature of the experiment: Postemergence foliar-applied herbicidal mixtures, cereal crops, greenhouse (Example III). As to conditions: Pyroxsulam 3.75 gai/ha, visual score 0 to 100 percent after 20-22 days. How it is done:
Seeds of the desired test plant species were planted in Sun Gro MetroMix® 306 planting mixture, which typically has a pH of 6.0 to 6.8 and an organic matter content of about 30 percent, in plastic pots with a surface area of 103.2 square centimeters (cm^2). […] The plants were grown for 7-36 days in a greenhouse with an approximate 14 hour photoperiod which was maintained at about 18° C. during the day and about 17° C. during the night. Nutrients and water were added on a regular basis and supplemental lighting was provided with overhead metal halide 1000-Watt lamps as necessary. The plants were employed for testing when they reached the second or third true leaf stage.
Treatments consisted of the benzyl ester of 4-amino-3-chloro-5-fluoro-6-(4-chloro-2-fluoro-3-methoxy-phenyl)pyridine-2-carboxylic acid (Compound A), formulated as an SC, a second cereal herbicide alone and then both in combination.
Other herbicidal components were applied on an active ingredient basis and included acetolactate synthase (ALS)-inhibiting herbicides (sulfonamide chemical class) florasulam formulated as Derby® and pyroxsulam formulated as PowerFlex®. A measured aliquot of benzyl ester of 4-amino-3-chloro-5-fluoro-6-(4-chloro-2-fluoro-3-methoxy-phenyl)pyridine-2-carboxylic acid (Compound A) was placed in 25 milliliter (mL) glass vials and diluted in a volume of 1.25% (v/v) AgriDex® crop oil concentrated to obtain a stock solution. Compound requirements are based upon a 12 mL application volume at a rate of 187 liters per hectare (L/ha). […] Formulated compounds were applied to the plant material with an overhead Mandel track sprayer equipped with an 8002E nozzle calibrated to deliver 187 L/ha over an application area of 0.503 square meters (m^2) at a spray height of 18 inches (46 cm) above average plant canopy. Control plants were sprayed in the same manner with the solvent blank.
The treated plants and control plants were placed in a greenhouse as described above and watered by sub-irrigation to prevent wash-off of the test compounds. After 20-22 days, the condition of the test plants as compared with that of the control plants was determined visually and scored on a scale of 0 to 100 percent where 0 corresponds to no injury and 100 corresponds to complete kill.
as §8, §9

[7] abbreviates: Compound A n-Butyl Ester 4.38 gae/ha.
[8] abbreviates: Compound A n-Butyl Ester 8.75 gae/ha.
Where [9] appears, read: Compound A n-Butyl Ester 17.5 gae/ha.

Regarding `Cc1ccn2nc(S(=O)(=O)Nc3c(F)cccc3F)nc2n1` [Flumetsulam, N-(2,6-difluorophenyl)-5-methyl[1,2,4]triazolo[1,5-a]pyrimidine-2-sulfonamide, reference compound], the “Visual Weed Control (%) - 22 DAA BRAPP Obs” value in experiment [1] (Flumetsulam 6.25 gai/ha) stood at 30%. Further, the results for the “Visual Weed Control (%) - 22 DAA CYPIR Obs” value in experiment [2] (Flumetsulam 6.25 gai/ha), in experiment [2] (Flumetsulam 12.5 gai/ha) and in experiment [2] (Flumetsulam 25 gai/ha) were 20%, 55% and 30%, respectively.
As for `COc1cc(OC)n2nc(S(=O)(=O)Nc3c(Cl)ccc(C)c3Cl)nc2n1` [Metosulam, N-(2,6-dichloro-3-methylphenyl)-5,7-dimethoxy[1,2,4]triazolo[1,5-a]pyrimidine-2-sulfonamide, reference compound], the “Visual Weed Control (%) - 22 DAA LEFCH Obs” value in experiment [3] is 15%.
As for `CCCCOC(=O)c1nc(-c2ccc(Cl)c(OC)c2F)c(F)c(N)c1Cl` [Compound A n-Butyl Ester], the figures for the “Visual Weed Control (%) - 27 DAA ECHCG Obs” value in experiment [4] (setting [7]), in experiment [4] (setting [8]) and in experiment [4] (setting [9]) were 0%, 0% and 90%, respectively. The “Visual Weed Control (%) - 27 DAA IPOHE Obs” value in experiment [5] (setting [7]), in experiment [5] (setting [8]) and in experiment [5] (setting [9]) was 10% throughout. The “Visual Weed Control (%) - 21 DAA BRAPP Obs” value in experiment [1] (setting [7]) is given as 0%; in experiment [1] (setting [8]), 40%.
`COc1cc(OC)n2nc(NS(=O)(=O)c3c(C(F)(F)F)ccnc3OC)nc2n1` [Pyroxsulam, N-(5,7-dimethoxy[1,2,4]triazolo[1,5-a]pyrimidin-2-yl)-2-methoxy-4-(trifluoromethyl)-3-pyridinesulfonamide, reference compound]: in experiment [6], the “CIRAR Obs” value is reported as 60%.
